Where two headings read alike, the source gives them in different places.
Target: T1, human GR (Homo sapiens, UniProt P04150)
T1 sequence (P04150 1-777): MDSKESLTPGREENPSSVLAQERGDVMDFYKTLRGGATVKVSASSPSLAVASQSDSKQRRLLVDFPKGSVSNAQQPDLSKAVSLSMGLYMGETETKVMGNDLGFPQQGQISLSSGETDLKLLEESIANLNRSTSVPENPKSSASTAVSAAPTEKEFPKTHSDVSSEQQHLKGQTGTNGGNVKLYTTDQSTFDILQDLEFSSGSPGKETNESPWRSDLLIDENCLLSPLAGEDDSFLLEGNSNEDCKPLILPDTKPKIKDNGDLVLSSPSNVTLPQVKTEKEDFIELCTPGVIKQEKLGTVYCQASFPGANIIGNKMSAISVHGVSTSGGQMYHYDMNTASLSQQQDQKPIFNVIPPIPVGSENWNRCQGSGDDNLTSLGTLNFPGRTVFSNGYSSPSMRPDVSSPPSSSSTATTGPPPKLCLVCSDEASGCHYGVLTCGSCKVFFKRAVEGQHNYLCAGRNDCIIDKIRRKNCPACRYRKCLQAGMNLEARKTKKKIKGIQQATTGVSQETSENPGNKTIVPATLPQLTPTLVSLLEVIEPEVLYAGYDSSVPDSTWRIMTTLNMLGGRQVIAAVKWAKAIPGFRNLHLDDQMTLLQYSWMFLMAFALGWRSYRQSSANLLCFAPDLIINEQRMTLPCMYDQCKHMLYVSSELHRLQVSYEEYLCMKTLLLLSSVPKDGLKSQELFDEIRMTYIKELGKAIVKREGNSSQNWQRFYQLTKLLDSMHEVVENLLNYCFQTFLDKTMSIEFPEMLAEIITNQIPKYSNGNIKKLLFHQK
Test: Transrepression Assay (GITAR), TNFα-β-lactamase reporter in U937 cells
Assay type: cell-based
Set-up: U937 cells contain an endogenous glucocorticoid receptor (GR); endogenous in cells; host or cells: U937 cells stably transfected with the TNF-alpha promoter/beta-lactamase reporter
Details: for GITAR > GRAMM % SEP: GITAR Emax minus GRAMMER Emax; for EC50: U937 cells, inflection point, read-out: Transrepression U937 Cells GITAR IP
Outline: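 Read-out: CCF2-AM β-lactamase signal after 70–90 min loading at room temperature. U937 TNF-α-promoter reporter cells (endogenous GR), compound 30–45 min at 37 °C, then PMA 5 ng/ml + LPS 100 ng/ml final, ~18 hr. Normalised to 100 nM dexamethasone = 100%.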

[1] = U-937, U937 cells, maximum activity, read-out: Transrepression U937 Cells GITAR Emax
[2] = U-937, activity repressed by 100 nM dexamethasone alone set as 100%, read-out: maximal activity in the transrepression (GITAR) assay

| SMILES | GITAR > GRAMM % SEP [%] | EC50 [nM] | Emax [1] [%] | Emax [2] [%] |
| --- | --- | --- | --- | --- |
| C[C@]12Cc3cnn(-c4ccc(F)cc4)c3C=C1CC[C@@H]2CN(CC#N)S(=O)(=O)c1ccccc1Cl [Example 50, 2-chloro-N-(cyanomethyl)-N-{[(4αR,5S)-1-(4-fluorophenyl)-4α-methyl-1,4,4α,5,6,7-hexahydrocyclopenta[f]indazol-5-yl]methyl}benzenesulfonamide] | 46.2 | 959 | 61.3 | > 5 |
| C[C@]12Cc3cnn(-c4ccc(F)cc4)c3C=C1CC[C@@H]2CN(CC#N)S(=O)(=O)c1ccc(F)cc1F [Example 51, N-(cyanomethyl)-2,4-difluoro-N-{[(4αR,5S)-1-(4-fluorophenyl)-4α-methyl-1,4,4α,5,6,7-hexahydrocyclopenta[f]indazol-5-yl]methyl}benzenesulfonamide] | 3.5 | 186 | 86.8 | > 5 |
| Cc1nn(C)c(Cl)c1S(=O)(=O)N(CC#N)C[C@H]1CCC2=Cc3c(cnn3-c3ccc(F)cc3)C[C@@]21C [Example 52, 5-chloro-N-(cyanomethyl)-N-{[(4αR,5S)-1-(4-fluorophenyl)-4α-methyl-1,4,4α,5,6,7-hexahydrocyclopenta[f]indazol-5-yl]methyl}-1,3-dimethyl-1H-pyrazole-4-sulfonamide] | 22.5 | 869 | 54.4 | > 5 |
| C[C@]12Cc3cnn(-c4ccc(F)cc4)c3C=C1CC[C@@H]2CN(CC#N)S(=O)(=O)c1ccccc1-c1ccccc1 [Example 53, N-(cyanomethyl)-N-{[(4αR,5S)-1-(4-fluorophenyl)-4α-methyl-1,4,4α,5,6,7-hexahydrocyclopenta[f]indazol-5-yl]methyl}biphenyl-2-sulfonamide] | 36.0 | 832 | 54 | > 5 |
| C[C@]12Cc3cnn(-c4ccc(F)cc4)c3C=C1CC[C@@H]2CN(CC#N)S(=O)(=O)c1ccccc1C(F)(F)F [Example 54, N-(cyanomethyl)-N-{[(4αR,5S)-1-(4-fluorophenyl)-4α-methyl-1,4,4α,5,6,7-hexahydrocyclopenta[f]indazol-5-yl]methyl}-2-(trifluoromethyl)benzenesulfonamide] | 23.1 | 1100 | 31.3 | > 5 |
| C[C@]12Cc3cnn(-c4ccc(F)cc4)c3C=C1CC[C@@H]2CN(CC#N)S(=O)(=O)c1ccccc1C#N [Example 55] | 35.7 | 337 | 83.4 | > 5 |
| Cc1oncc1S(=O)(=O)N(CCO)C[C@H]1CCC2=Cc3c(cnn3-c3ccc(F)cc3)C[C@@]21C [Example 56, N-{[(4αR,5S)-1-(4-fluorophenyl)-4α-methyl-1,4,4α,5,6,7-hexahydrocyclopenta[f]indazol-5-yl]methyl}-N-(2-hydroxyethyl)-5-methylisoxazole-4-sulfonamide] | 36.1 | 643 | 86.9 | > 5 |
| C[C@]12Cc3cnn(-c4ccc(F)cc4)c3C=C1CC[C@@H]2CN(CCO)S(=O)(=O)c1cc(Cl)c(Cl)s1 [Example 58, 4,5-dichloro-N-{[(4αR,5S)-1-(4-fluorophenyl)-4α-methyl-1,4,4α,5,6,7-hexahydrocyclopenta[f]indazol-5-yl]methyl}-N-(2-hydroxyethyl)thiophene-2-sulfonamide] | 25.7 | 737 | 28.8 | > 5 |
| C[C@]12Cc3cnn(-c4ccc(F)cc4)c3C=C1CC[C@@H]2CN(CCO)S(=O)(=O)c1ccc(F)c(F)c1 [Example 59] | 39.6 | 538 | 80.9 | > 5 |
| C[C@]12Cc3cnn(-c4ccc(F)cc4)c3C=C1CC[C@@H]2CN(CCO)S(=O)(=O)c1ccc(C#N)cc1Cl [Example 60, 2-chloro-4-cyano-N-{[(4αR,5S)-1-(4-fluorophenyl)-4α-methyl-1,4,4α,5,6,7-hexahydrocyclopenta[f]indazol-5-yl]methyl}-N-(2-hydroxyethyl)benezenesulfonamide] | 29.0 | 813 | 52 | > 5 |
| C[C@]12Cc3cnn(-c4ccc(F)cc4)c3C=C1CC[C@@H]2CN(CCO)S(=O)(=O)c1cccc(Cl)c1Cl [Example 61, 2,3-dichloro-N-{[(4αR,5S)-1-(4-fluorophenyl)-4α-methyl-1,4,4α,5,6,7-hexahydrocyclopenta[f]indazol-5-yl]methyl}-N-(2-hydroxyethyl)benezenesulfonamide] | 25.5 | 1550 | 31.3 | > 5 |
| C[C@]12Cc3cnn(-c4ccc(F)cc4)c3C=C1CC[C@@H]2CNS(=O)(=O)Cc1cccnc1 [Example 169, N-{[(4αR,5S)-1-(4-fluorophenyl)-4α-methyl-1,4,4α,5,6,7-hexahydrocyclopenta[f]indazol-5-yl]methyl}-1-pyridin-3-ylmethanesulfonamide] | 56.1 | 3030 | 68.5 | > 5 |
| Cc1noc(C)c1S(=O)(=O)N(CC1CCCO1)C[C@H]1CCC2=Cc3c(cnn3-c3ccc(F)cc3)C[C@@]21C (stereo partly drawn) [Example 170, N-{[(4αR,5S)-1-(4-fluorophenyl)-4α-methyl-1,4,4α,5,6,7-hexahydrocyclopenta[f]indazol-5-yl]methyl}-3,5-dimethyl-N-(tetrahydrofuran-2-ylmethyl)isoxazole-4-sulfonamide] | 11.8 | 759 | 87.7 | > 5 |
| CCS(=O)(=O)N(CCOC)C[C@H]1CCC2=Cc3c(cnn3-c3ccc(F)cc3)C[C@@]21C [Example 171, N-{[(4αR,5S)-1-(4-fluorophenyl)-4α-methyl-1,4,4α,5,6,7-hexahydrocyclopenta[f]indazol-5-yl]methyl}-N-(2-methoxyethyl)ethanesulfonamide] | 16.7 | 410 | 88 | > 5 |
| COCCN(C[C@H]1CCC2=Cc3c(cnn3-c3ccc(F)cc3)C[C@@]21C)S(=O)(=O)c1cn(C)nc1C(F)(F)F [Example 172, N-{[(4αR,5S)-1-(4-fluorophenyl)-4α-methyl-1,4,4α,5,6,7-hexahydrocyclopenta[f]indazol-5-yl]methyl}-N-(2-methoxyethyl)-1-methyl-3-(trifluoromethyl)-1H-pyrazole-4-sulfonamide] | 31.8 | 718 | 42.4 | > 5 |
| COCCN(C[C@H]1CCC2=Cc3c(cnn3-c3ccc(F)cc3)C[C@@]21C)S(=O)(=O)c1c(C)noc1C [Example 173, N-{[(4αR,5S)-1-(4-fluorophenyl)-4α-methyl-1,4,4α,5,6,7-hexahydrocyclopenta[f]indazol-5-yl]methyl}-N-(2-methoxyethyl)-3,5-dimethylisoxazole-4-sulfonamide] | 12.6 | 520 | 83 | > 5 |
| CCS(=O)(=O)N(CC1CCCO1)C[C@H]1CCC2=Cc3c(cnn3-c3ccc(F)cc3)C[C@@]21C (stereo partly drawn) [Example 174, N-{[(4αR,5S)-1-(4-fluorophenyl)-4α-methyl-1,4,4α,5,6,7-hexahydrocyclopenta[f]indazol-5-yl]methyl}-N-(tetrahydrofuran-2-ylmethyl)ethanesulfonamide] | 4.2 | 423 | 85.3 | > 5 |
| Cn1cc(S(=O)(=O)N(CC2CCCO2)C[C@H]2CCC3=Cc4c(cnn4-c4ccc(F)cc4)C[C@@]32C)c(C(F)(F)F)n1 (stereo partly drawn) [Example 175, N-{[(4αR,5S)-1-(4-fluorophenyl)-4α-methyl-1,4,4α,5,6,7-hexahydrocyclopenta[f]indazol-5-yl]methyl}-1-methyl-N-(tetrahydrofuran-2-ylmethyl)-3-(trifluoromethyl)-1H-pyrazole-4-sulfonamide] |  | 822 | 47.5 | > 5 |
| Cc1noc(C)c1S(=O)(=O)N(C)C[C@H]1CCC2=Cc3c(cnn3-c3ccc(F)cc3)C[C@@]21C [Example 176, N-{[(4αR,5S)-1-(4-fluorophenyl)-4α-methyl-1,4,4α,5,6,7-hexahydrocyclopenta[f]indazol-5-yl]methyl}-N,3,5-trimethylisoxazole-4-sulfonamide] | 17.6 | 316 | 74.5 | > 5 |

Reference: patent US8299048B2, “Hexahydrocyclopentyl[f]indazole sulfonamides and derivatives thereof as selective glucocorticoid receptor modulators” (Merck Sharp & Dohme Corp., priority 2008, dated 2012)
